The test system of this assay is PS19 mouse model of tauopathy (human MAPT P301S). Put plainly: Behavior, neuropathology and survival of PS19 mice. The settings on record: 50, 100, and 150 mg/kg in feed, approximately 8 months. The class given is in vivo.

*1 amine or outer side, *2 acyl side, *3 side chain or, on linkers, in order; H or OH if unused. Where a SMILES comes first, the peptide text is derived from it. Bridges are numbered along the chain shown (N, C = ends). [ ]: non-standard residue; d: D form. The star is where a group is joined. ξ: configuration not given here. X2 = O=C(C(N[*:1])c1ccc(OC2OC(CO)C(O)C(O)C2OC2OC(CO)C(O)C(O)C2O)cc1)[*:2]; Octa(2Z,4E)dienoyl(7-Me) = CC(C)C/C=C/C=C\C(=O)*; ξPhg(3-Cl-4-OH) = NC(C(=O)O)c1ccc(O)c(Cl)c1; X1 = NC(=O)C(O[*:3])C(N[*:1])C(=O)[*:2]; Hpg = N[CH](C(=O)O)c1ccc(O)cc1; Orn = NCCC[CH](N)C(=O)O

Turning to `CC(C)C/C=C/C=C\C(=O)NC(CC(N)=O)C(=O)NC1C(=O)NC(c2ccc(O)cc2)C(=O)NC(CCCN)C(=O)NC(C(C)O)C(=O)NC(c2ccc(O)cc2)C(=O)NC(c2ccc(O)cc2)C(=O)NC(C(C)O)C(=O)NC(Cc2ccccc2)C(=O)NC(CCCN)C(=O)NC(c2ccc(OC3OC(CO)C(O)C(O)C3OC3OC(CO)C(O)C(O)C3O)cc2)C(=O)NC(C(C)O)C(=O)NC(c2ccc(O)cc2)C(=O)NCC(=O)NC(CC(C)C)C(=O)NC(C)C(=O)NC(c2ccc(O)c(Cl)c2)C(=O)OC1C(N)=O` (centres unmarked) [Ramoplanin A2] ({Octa(2Z,4E)dienoyl(7-Me)}-N[X1][Hpg][Orn]T[Hpg][Hpg]TF[Orn][X2]T[Hpg]GLA[ξPhg(3-Cl-4-OH)]; ester 2-C; configuration not given here), the “cognition, neuropathology, and survival of PS19 mice” value is “positive effect”; the “tau aggregation in PS19 mice” value is “inhibits tau aggregation”.

The values are drawn from patent US20260199426A1, “CYCLIC LIPOPEPTIDE ANTIBIOTIC COMPOUNDS FOR USE IN THE TREATMENT OF PROTEIN AGGREGATION DISEASE” (DEUTSCHES ZENTRUM FÜR NEURODEGENERATIVE ERKRANKUNGEN E. V., priority 2022, published 2026).
